Data set [1] in a line: Chemical stability: acid stability in 0.1N HCl at 40° C. It is filed as physicochemical. The method, then:
Table 6 below lists the chemical stability of BCCA free acid as well as that of selected Examples 31, 89, 153, and 175 disclosed in WO 06/002342, renumbered below as compounds 13, 14, 15, and 16, respectively. […] This increased acid stability for BCCA free acid is not taught and cannot be predicted considering WO 06/002342.
Sample preparations: 1) Compound Stock: 0.9 mg/mL in ACN; 2) 100 μL stock+700 μL ACN+1 mL media (0.1N HCl, 50 mM PO4, pH 8, and 0.3% H2O2); 3) Place vials in heated (40° C.) autosampler, inject at 4 hour intervals for 16 or 24 hours.
Column: Alltech Alltima Phenyl, 3 μm, 4.6×150 mm or Waters XTerra MS C18, 3.5 μm, 4.6×150 mm Column temperature: 50° C., Injection volume: 10 μL. Detection: UV @ 226, 254 or 266 nm (depending on compound) Flow rate: 1.5 mL/min. Mobile phase: 0.1% TFA in 50% water/50% ACN (may need to adjust % ACN to keep compound peak retention time ˜5 min.) final sample conc. 0.05 mg/mL; ACN content 44%.

Data set [2] is described as follows: IV and PO pharmacokinetics in male Sprague Dawley rats. The format is in vivo. The settings on record: 3 mg/kg PO; for F % (AUC Extrap.) ± sd: 1 mg/kg IV; for Cmax / Tmax: rat, plasma. The method, then:
This following is to determine the pharmacokinetic parameters, including oral bioavailability, following a single 1 mg/kg intravenous bolus or a 3 mg/kg oral dose administration of the compound to male Sprague Dawley rats (n=4) in a crossover study design. The intravenous vehicle is 20% solutol microemulsion/80% deionized water. The oral vehicle is povidone USP 10%/SLS 0.5%/QS deionized water. In the intravenous arm, blood samples are collected at 0.08, 0.25, 0.5, 1, 2, 5, 8, 12, and 24 hours post-dose. In the oral arm, blood samples are collected at 0, 0.25, 0.5, 1, 2, 5, 8, 12, and 24 hours post-dose. Plasma is obtained by centrifugation, placed on ice, and frozen until samples are shipped on dry ice to Bioanalytical Systems, Inc. (BASi; West Lafayette, Ind.) for bioanalytical analysis. Concentrations of BCCA are determined by LC/MS/MS and pharmacokinetic parameters are calculated using a validated software program (Watson, Version 7.1). Other vehicles can be used to evaluate the bioavailability of BCCA including: 1% w/v sodium carboxymethyl cellulose, 0.25% w/v polysorbate 80 (Tween 80) and 0.05% 0.05% Dow Corning Antifoam 1510-US in purified water or; 1% w/v sodium carboxymethyl cellulose, 0.5% w/v sodium laurate sulfate, and 0.05% 0.05% Dow Corning Antifoam 1510-US in purified water in purified water each used either with or without sonification to facilitate dissolution of the compounds.

For another data set, the system named is HDL cholesterol. Nature of the data set: In vivo assay of plasma lipids (HDL cholesterol elevation). Further details: species or system transgenic mice that express human CETP. Conditions: 30 mpk oral dose, 79.5% corn oil, 20% oleic acid, 0.5% Lubrafil, CETP and Apo A1 heterozygote mice. The method, then: Syrian Golden Hamsters, which express endogenous CETP, can be used to assess the activity of the compounds in vivo. Test compounds are administered orally 30 mpk dose in a 79.5% corn oil, 20% oleic acid, 0.5% Lubrafil vehicle to a strain of transgenic mice that express human CETP (female or male CETP and Apo A1 heterozygote mice Taconic, Germantown, N.Y.). At various times after dosing, ranging from 4 h to 48 h, blood/plasma can be obtained. The CETP activity can be determined by a method similar to that described above for the in vitro CETP activity assay, with the modification that plasma from the treated animals is used as the CETP source in the assay.
Activity of compounds of this invention in vivo can be evaluated by comparing the level of elevation of HDL cholesterol relative to a control by a given amount of a compound in a CETP-containing animal species. The test compounds are administered as described above for the in vivo assay of CETP activity. […] The HDL cholesterol levels in the serum can be determined by known procedures using HDL-C plus reagents (Roche/Hitachi, Indianapolis, Ind.) with a clinical chemistry analyzer (Roche/Hitachi, Indianapolis, Ind.). Additional serum lipids can be analyzed by enzymatic methods. Lipids in the VLDL, LDL and HDL fractions are analyzed by enzymatic methods after precipitation or size exclusion chromatography. […]

Another data set deals with T1, human CETP (Homo sapiens, UniProt P11597).
T1 construct: plasma from the treated animals is used as the CETP source in the assay; tissue Taconic; host or cells: plasma of transgenic mice expressing human CETP (CETP and Apo A1 heterozygotes)
T1 sequence (P11597 18-493): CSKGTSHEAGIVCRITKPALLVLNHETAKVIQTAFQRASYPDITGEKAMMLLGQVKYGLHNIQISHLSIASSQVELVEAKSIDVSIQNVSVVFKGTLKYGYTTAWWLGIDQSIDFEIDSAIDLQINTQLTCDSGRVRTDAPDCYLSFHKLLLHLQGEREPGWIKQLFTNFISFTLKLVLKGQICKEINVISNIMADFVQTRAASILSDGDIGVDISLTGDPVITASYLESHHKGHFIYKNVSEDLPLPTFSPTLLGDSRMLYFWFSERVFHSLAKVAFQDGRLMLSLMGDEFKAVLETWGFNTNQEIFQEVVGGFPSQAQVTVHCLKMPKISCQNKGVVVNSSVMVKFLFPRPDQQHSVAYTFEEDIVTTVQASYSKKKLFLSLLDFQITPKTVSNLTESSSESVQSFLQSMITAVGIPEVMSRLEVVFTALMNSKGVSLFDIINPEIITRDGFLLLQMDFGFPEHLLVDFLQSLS
Nature of the data set: In vivo assay of CETP activity. Also noted: species or system transgenic mice that express human CETP. The settings on record: 30 mpk oral dose, 79.5% corn oil, 20% oleic acid, 0.5% Lubrafil; CETP and Apo A1 heterozygote mice; 8 hr; read-out: % CETP Inhib 8 hr. The source says: An in vitro Scintillation Proximity Assay (SPA) has been used to evaluate the ability of compounds of this invention to inhibit the transfer of radiolabeled cholesterol esters between HDL and LDL. This assay monitors the inhibition of the transfer of [^3H]cholesterol esters from HDL (Amersham) to biotinylated LDL (Amersham) by a CETP source. The CETP source for this assay can be produced by AV-12 cells that have been created to express human CETP. The radiolabeled cholesterol ester is transferred in a HEPES-NaCl based buffer, after thirty minutes incubation the reaction is stopped and the biotinylated LDL is bound to streptavidin/scintillant coated SPA beads (Amersham). The radioactive signal is measured in a Packard 96-well scintillation TopCounter with window settings fully open. A decrease in radioactive signal from the LDL relative to a standard indicates the ability of compounds to inhibit the activity of CETP.
Syrian Golden Hamsters, which express endogenous CETP, can be used to assess the activity of the compounds in vivo. […] The CETP activity can be determined by a method similar to that described above for the in vitro CETP activity assay, with the modification that plasma from the treated animals is used as the CETP source in the assay.

Data set [3] can be described thus: Hygroscopicity and degradation on storage at ambient temperature. The format is physicochemical. Conditions: stored at ambient temperature.

Marks after values point to notes of the source that are not given here.

The Cmax is the highest concentration seen after dosing. What is called Tmax is the time from dosing to the highest level.

For the compound `Cc1cc2c(cc1C(F)(F)F)N(C1CCC(C(=O)O)CC1)CCC[C@@H]2N(Cc1cc(C(F)(F)F)cc(C(F)(F)F)c1)c1nnn(C)n1` (stereo partly drawn) [Compound 16], the “Acid Stability, percent remaining, 8 hrs” value in data set [1] is recorded as 37.8%. The “Acid Stability, percent remaining after 16 hrs” value in data set [1] (16 hrs (footnote *)) is 13.4* Percent.
Turning to `Cc1cc(C)c2c(c1)[C@@H](N(Cc1cc(C(F)(F)F)cc(C(F)(F)F)c1)c1nnn(C)n1)CCCN2C[C@H]1CC[C@H](C(=O)O)CC1` [Ex 1, Trans-4-[[(5S)-5-[[[3,5-bis(trifluoromethyl)phenyl]methyl](2-methyl-2H-tetrazol-5-yl)amino]-2,3,4,5-tetrahydro-7,9-dimethyl-1H-1-benzazepin-1-yl]methyl]-cyclohexanecarboxylic acid], in data set [1], the “Acid Stability, percent remaining, 8 hrs” value was 97.3% and the “Acid Stability, percent remaining, 24 hrs” value is recorded as 91.3%. Moreover, in data set [2], the “F % (AUC Extrap.) ± sd” value is recorded as 38 ± 4%, the concentration peaked (Cmax) at 208 ± 41 ng/mL and the time of peak concentration (Tmax) was found to be 3.5 ± 1.7 h. In addition, the “% HDL cholesterol increase at 8 hr” value in the data set on HDL cholesterol was 129.7. %. In addition, the inhibition at 30 mg/kg at human CETP turned out to be 98.6%. Besides, the hygroscopicity entry in data set [3] is “non-hygroscopic”.
Take `CC(C)(C)N.CCO.Cc1cc(C)c2c(c1)[C@@H](N(Cc1cc(C(F)(F)F)cc(C(F)(F)F)c1)c1nnn(C)n1)CCCN2C[C@H]1CC[C@H](C(=O)O)CC1.Cc1cc(C)c2c(c1)[C@@H](N(Cc1cc(C(F)(F)F)cc(C(F)(F)F)c1)c1nnn(C)n1)CCCN2C[C@H]1CC[C@H](C(=O)O)CC1` (relative stereo) [Example 15, Trans-4-[[(5S)-5-[[[3,5-bis(trifluoromethyl)phenyl]methyl](2-methyl-2H-tetrazol-5-yl)amino]-2,3,4,5-tetrahydro-7,9-dimethyl-1H-1-benzazepin-1-yl]methyl]-cyclohexanecarboxylic acid hemi tert-butylamine salt hemi ethanol (2:1:1) solvate in crystalline form]: the hygroscopicity entry in data set [3] is listed as “non-hygroscopic”.
Take `Cc1cc2c(c(C)c1C(F)(F)F)N(CC1CCC(CC(=O)O)CC1)CCC[C@@H]2N(Cc1cc(C(F)(F)F)cc(C(F)(F)F)c1)c1nnn(C)n1` (stereo partly drawn) [Compound 15, reference compound]: in data set [1], the “Acid Stability, percent remaining, 8 hrs” value turned out to be 100.4% and the “Acid Stability, percent remaining, 24 hrs” value was determined as 99.1%. In data set [2], the “F % (AUC Extrap.) ± sd” value was 8 ± 3%, the highest level (Cmax) was 85 ± 43 ng/mL and the Tmax stood at 5 h.
Turning to `CC(C)(C)N.CC(C)O.Cc1cc(C)c2c(c1)[C@@H](N(Cc1cc(C(F)(F)F)cc(C(F)(F)F)c1)c1nnn(C)n1)CCCN2C[C@H]1CC[C@H](C(=O)O)CC1` (relative stereo) [Example 14, Trans-4-[[(5S)-5-[[[3,5-bis(trifluoromethyl)phenyl]methyl](2-methyl-2H-tetrazol-5-yl)amino]-2,3,4,5-tetrahydro-7,9-dimethyl-1H-1-benzazepin-1-yl]methyl]-cyclohexanecarboxylic acid tert-butylamine isopropyl alcohol (1:1:1) solvate], the hygroscopicity entry in data set [3] is reported as “non-hygroscopic”.
For `[O-][n+]1ccccc1[S-].[O-][n+]1ccccc1[S-].[Zn+2]` [zinc salt], the hygroscopicity result in data set [3] is “essentially non-hygroscopic”.
With `Cc1cc(C)c2c(c1)[C@@H](N(Cc1cc(C(F)(F)F)cc(C(F)(F)F)c1)c1nnn(C)n1)CCCN2C[C@H]1CC[C@H](C(=O)O)CC1.O` (relative stereo) [Example 5, Trans-4-[[(5S)-5-[[[3,5-bis(trifluoromethyl)phenyl]methyl](2-methyl-2H-tetrazol-5-yl)amino]-2,3,4,5-tetrahydro-7,9-dimethyl-1H-1-benzazepin-1-yl]methyl]-cyclohexanecarboxylic acid hydrate in crystalline form], the hygroscopicity entry in data set [3] is recorded as “non-hygroscopic”.
`Cc1cc2c(cc1C(F)(F)F)N(C[C@H]1CC[C@H](CC(=O)O)CC1)CCC[C@@H]2N(Cc1cc(C(F)(F)F)cc(C(F)(F)F)c1)c1nnn(C)n1` [Compound 13, (4-{5-[(3,5-Bis-trifluoromethyl-benzyl)-(2-methyl-2H-tetrazol-5-yl)-amino]-7-methyl-8-trifluoromethyl-2,3,4,5-tetrahydro-benzo[b]azepin-1-ylmethyl}-cyclohexyl)-acetic acid]: in data set [1], the “Acid Stability, percent remaining, 8 hrs” value came to 14.5% and the “Acid Stability, percent remaining, 24 hrs” value is reported as 0%.
For `Cc1cc2c(cc1C(F)(F)F)N(Cc1ccc(C(=O)O)cc1)CCC[C@@H]2N(Cc1cc(C(F)(F)F)cc(C(F)(F)F)c1)c1nnn(C)n1` [Compound 14, (S)-4-{5-[(3,5-Bis-trifluoromethyl-benzyl)-(2-methyl-2H-tetrazol-5-yl)-amino]-7-methyl-8-trifluoromethyl-2,3,4,5-tetrahydro-benzo[b]azepin-1-ylmethyl}-benzoic acid] the same measures were 52% and 13.4%.
For the compound `Cc1cc(C)c2c(c1)[C@@H](N(Cc1cc(C(F)(F)F)cc(C(F)(F)F)c1)c1nnn(C)n1)CCCN2C[C@H]1CC[C@H](C(=O)O)CC1.O` (relative stereo) [Example 3, Trans-4-[[(5S)-5-[[[3,5-bis(trifluoromethyl)phenyl]methyl](2-methyl-2H-tetrazol-5-yl)amino]-2,3,4,5-tetrahydro-7,9-dimethyl-1H-1-benzazepin-1-yl]methyl]-cyclohexanecarboxylic acid•Hydrate], the degradation on storage result in data set [3] was “minor or very little degradation”.
